From patent US20230257758A1, “PLANT METABOLITE-MEDIATED INDUCTION OF BIOFILM FORMATION IN SOIL BACTERIA TO INCREASE BIOLOGICAL NITROGEN FIXATION AND PLANT NITROGEN ASSIMILATION” (The Regents of the University of California, priority 2020, published 2023)

Tests used:
[1] = tested on: Gluconacetobacter diazotrophicus; experiment: Microtiter-plate biofilm formation assay (crystal violet staining) with rice root exudates; type: cell-based; settings: for Biofilm production (natural flavonoids, FIG. 7): exposed for 3 days to Oryza sativa root exudates supplemented with […] of the indicated compounds; for Biofilm formation, comparison of flavones (FIG. 11): 3 days with Oryza sativa root exudates supplemented with indicated concentrations; for Biofilm formation in chemical screening (normalized to DMSO control): wild-type rice (Kitaake) root exudate 198 μL + 2 μL of 10 mM compound, 3 days, crystal violet staining
Procedure: FIG. 3. […] Biofilm formation of Glucanoacetobacter diazotrophicus was assessed incubated with wild-type rice (Oryza sativa Kitaake) root exudates supplemented with 2 μl of each of 500 flavonoid and derivated compounds of a chemical library (FL-500, TimTec) and 700 compounds (natural and synthetic) (NPDepo library). Chemical screening was performed in a 96-well plate with each well containing: 198 μL of the Kitaake exudate and 2 μL of the 10 mM compound from the chemical libraries. An equal volume (2 μL) of DMSO was added to each well and served as the negative control. Gluconacetobacter diazotrophicus was added to the final OD600=0.01 to each well and incubated in a shaker at 150 rpm, 28° C. for 3 days before biofilm quantification by crystal violet staining. The value of each well in biofilm quantification was normalized to that of the DMSO control in each plate (DMSO=1). The heatmap was generated by the mean value of 3 biological replicates for each compound.
FIG. 7. Effect of natural flavonoids on biofilm formation in Glucanoacetobacter diazotrophicus. Induction of biofilm production in Gluconacetobacter diazotrophicus exposed to Oryza sativa root exudates supplemented with […] of the indicated compounds. Controls are exudates without compound and exudates with DMSO.
FIG. 11. Effects of Naringenin, Apigenin, Apigenin-7-Glucoside, and Luteolin on biofilm formation on Gluconacetobacter diazotrophicus. Values are the Mean±SD (n=6).
Any of a number of assays can be used to assess plants generated using the present methods, as well as to assess candidate plant molecules (e.g., other flavones) for their ability to upregulate biofilm production and assimilation of N2-fixing bacteria. For example, to confirm that the plants are exuding increased levels of the one or more flavones, root exudates from the plants can be isolated and the quantities and identities of the flavones determined, e.g., using mass spectrometry. In addition, the exudates (or other candidate biofilm-inducing molecules) can be incubated with N2-fixing bacteria, e.g., Glucanoacetobacter diazotrophicus, and the biofilm produced by the bacteria assessed. The biofilm can be quantified, e.g., by incubating the exudate (or candidate molecule or molecules) and bacteria in the wells of a microtiter plate, removing the cultures from the plate, washing the wells, adding a solution of crystal violet, rinsing and drying the plate, and then adding ethanol and measuring absorbance at, e.g., 540 nm. See, e.g. Example 1 and www.jove.com/video/2437/microtiter-dish-biofilm-formation-assay, the entire disclosure of which is herein incorporated by reference.
To assess the effect(s) of different chemicals on biofilm formation in N2-fixing bacteria, we used a published protocol (www.jove.com/video/2437/microtiter-dish-biofilm-formation-assay). Basically, bacteria were grown in a 96-well plate in a rich-nutrient medium at 28° C. The compound to be tested was added and the culture was grown overnight. Plant exudates and 2 μl of the compound were added to the well and the bacteria grown for 3 days under shaking (200 rpm). After 3 days, the planktonic bacterial cultures were discarded and the wells were thoroughly washed with water. A solution of 1% of crystal violet was added to each well of the plate and the plate shaken for 10-15 min at 200 rpm. The plates are rinsed 3-4 times with water (by submerging the plants in a tub of water), shaken vigorously and blotted on a stack of paper towels (to eliminate excess of cells and dye), the microliter plate was placed upside down and air dried. To quantify the amount of biofilm that adhered to the well walls, 200 μl of ethanol were added to each well, the plates shacked at 200 rpm, at 28° C. for 10-15 min. The absorbance of the solution was measured at 540 nm, using ethanol as a blank (FIG. 1). […]

Glucanoacetobacter = experiment: Biofilm formation in suspension of double-labelled (mCherry, gumDpro::GFP) Glucanoacetobacter; type: cell-based, Glucanoacetobacter diazotrophicus; settings: addition of compound to a suspension of Glucanoacetobacter (FIGS. 5A, 5B)
From the text: (§1) FIGS. 5A-5C. Effects of the addition of luteolin or apigenin to biofilm formation in Glucanoacetobacter diazotrophicus. FIG. 5A: Effects of the addition of luteolin to biofilm formation in a Glucanoacetobacter diazotrophicus suspension.
The activity of the exudate or of candidate molecules can also be assessed in vivo, e.g., by using transgenic N2-fixing bacteria such as Glucanoacetobacter diazotrophicus that constitutively express a label such as mCherry. The bacteria can also express labeled components of biofilms, e.g., in bacteria transformed with gumDpro::GFP. The double labeling in such bacteria allows the visualization of the bacteria and, independently, the development of biofilm in the presence or absence of the exudate or candidate molecule.
Our results indicated clustering among common moieties, particularly among heterooctacyclic compounds (e.g., Staurosporine) and […] (e.g., luteolin, apigenin) and anthraquinones (e.g. 2H03 and 4G03—Papaverine). (FIG. 4). […] Therefore we assessed the effects of luteolin and apigenin in vivo. First we assessed the formation of chemical-induced formation of biofilm in bacterial cultures. For this, we generated transgenic Glucanoacetobacter constitutively expressing mCherry (transformed with pSEVAGeng-Luc-mCherry) in order to visualize mCherry fluorescent bacteria. Then we transformed the mCherry expressing bacteria with gumDpro::GFP. GumD encodes for components of the bacterial Exopolysacharides (EPS)] in order to visualize GFP-labelled biofilms. Thus the double labelling allowed as to follow the development of biofilm while visualizing the bacteria.

[2] = tested on: Glucanoacetobacter diazotrophicus; experiment: Acetylene reduction assay (ARA) for bacterial N2 fixation; type: cell-based; settings: Kitaake rice root exudates and 100 μM, 3 days at 28° C., then acetylene 4 days
Procedure: as §1
FIGS. 12A-12C. Effects of flavones (Naringenin, Apigenin, Apigenin-7-Glucoside) on bacterium N2-fixation. FIG. 12A: Activity was assessed by measuring the conversion of acetylene to ethylene by Gas Chromatography. FIG. 12B: Assimilation of Nitrogen by Kitaake rice plants, incubated with Glucanoacetobacter in the absence (DMSO) or presence of Apigenin. Nitrogen assimilation was assessed by feeding ^15N2 and measuring assimilated inorganic ^15N in leaf tissues after 2 weeks, using Mass Spectroscopy. […]
The N2-fixing activity of the bacteria can be assessed, e.g., using an acetylene reduction assay (ARA), in which bacteria are cultured in the presence of acetylene gas, and the conversion of acetylene to ethylene measured by, e.g., gas chromatography.
To assess the effects of the flavones on bacteria N2 fixation, we used the acetylene reduction assay (ARA), where gas acetylene is added, and the resulting ethylene is measured by Gas Chromatography. […] Ten % of the air in the tube was replaced by acetylene, the cells incubated for 4 days and ethylene was measured by gas chromatography (FIG. 12A). […]

[3] = tested on: Kitaake rice plants, incubated with Glucanoacetobacter; experiment: Assimilation of 15N2-derived nitrogen by rice plants incubated with bacteria; type: in vivo, Oryza sativa Kitaake; settings: rice seedlings in soil with bacteria, 15N2 gas added; versus DMSO control
Procedure: (§2) FIGS. 12A-12C. Effects of flavones (Naringenin, Apigenin, Apigenin-7-Glucoside) on bacterium N2-fixation. FIG. 12A: Activity was assessed by measuring the conversion of acetylene to ethylene by Gas Chromatography. FIG. 12B: Assimilation of Nitrogen by Kitaake rice plants, incubated with Glucanoacetobacter in the absence (DMSO) or presence of Apigenin. Nitrogen assimilation was assessed by feeding ^15N2 and measuring assimilated inorganic ^15N in leaf tissues after 2 weeks, using Mass Spectroscopy. FIG. 12C: Kitaake rice roots incubated with Glucanoacetobacter in the absence (DMSO) or presence of Apigenin.
The genetically modified plants themselves can also be assessed in any of a number of ways. For example, plants can be grown in the presence of fluorescently labeled N2-fixing bacteria, and the adherence of the bacteria to the plant root hairs, either attached to the root surface or present inside the plant tissues, can be determined. The plants can also be assessed by determining the number of tillers and/or the seed yield. In some embodiments, the assimilation of N2 fixed by bacteria in the soil is assessed by, e.g., growing the plants in the presence of ^15N2 gas, and then measuring the level of ^15N assimilated in the plant leaves, e.g., using Mass spectroscopy. […]

[4] = tested on: Kitaake rice roots incubated with Glucanoacetobacter; experiment: Microscopy of adherence of fluorescent bacteria to rice roots; type: in vivo, Oryza sativa Kitaake; settings: versus DMSO
Procedure: as §2
The genetically modified plants themselves can also be assessed in any of a number of ways. For example, plants can be grown in the presence of fluorescently labeled N2-fixing bacteria, and the adherence of the bacteria to the plant root hairs, either attached to the root surface or present inside the plant tissues, can be determined. The plants can also be assessed by determining the number of tillers and/or the seed yield. In some embodiments, the assimilation of N2 fixed by bacteria in the soil is assessed by, e.g., growing the plants in the presence of ^15N2 gas, and then measuring the level of ^15N assimilated in the plant leaves, e.g., using Mass spectroscopy.
No bacteria was seen on the control treatments. […]

Azoarcus communis = experiment: Luteolin-induced biofilm production in N2-fixing bacteria; type: cell-based
Procedure: (§3) FIG. 8. Induction of biofilm production in facultative N2-fixing bacteria.
(§4) FIGS. 9A-9C. Effect of luteolin on biofilm production in Azoarcus sp. CIB (FIG. 9A), Azoarcus communis (FIG. 9B), and Burkholderia vietnamensis (FIG. 9C).
(§5) The effects of luteolin on the induction of biofilm production was tested in a number of N2-fixing bacteria (FIG. 8). While Burkholderia vietnamensis and Azoarcus sp. […] Also the response of the bacteria to luteolin was not uniform; Azoarcus sp.

Azoarcus sp. CIB = experiment: as above; type: cell-based
Procedure: as §3, §4, §5

[5] = tested on: Burkholderia vietnamensis; experiment: as above; type: cell-based
Procedure: as §3, §4, §5

Azospirillum sp. 8510 = experiment: as above; type: cell-based
Procedure: as §3, §5

[6] = tested on: Herbaspirillum seropedicae; experiment: as above; type: cell-based
Procedure: as §3, §5

## O=C1C[C@@H](c2ccc(O)c(O)c2)Oc2cc(O)cc(O)c21 [Eriodictyol]
[1]
  Biofilm production (natural flavonoids, FIG. 7): Only luteolin induced a significant increase

## O=c1c(O)c(-c2cc(O)c(O)c(O)c2)oc2cc(O)cc(O)c12 [Myricetin]
[1]
  Biofilm production (natural flavonoids, FIG. 7): Only luteolin induced a significant increase

## O=C1C[C@@H](c2ccc(O)cc2)Oc2cc(O)cc(O)c21 [Naringenin]
[1]
  Biofilm production (natural flavonoids, FIG. 7): Only luteolin induced a significant increase

## O=c1c(O)c(-c2ccc(O)c(O)c2)oc2cc(O)cc(O)c12 [Quercetin]
[1]
  Biofilm production (natural flavonoids, FIG. 7): Only luteolin induced a significant increase

## O=c1cc(-c2ccc(O)cc2)oc2cc(O[C@@H]3O[C@H](CO)[C@@H](O)[C@H](O)[C@H]3O)cc(O)c12 [apigenin-7-O-glucoside]
[1]
  Biofilm formation, comparison of flavones (FIG. 11): strongest biofilm induction
Glucanoacetobacter
  Induction of biofilm formation in bacterial suspension: showed the induction of biofilm formation
[2]
  Nitrogen fixation (conversion of acetylene to ethylene, gas chromatography): promote nitrogen fixation

## O=c1cc(-c2ccc(O)cc2)oc2cc(O)cc(O)c12 [apigenin]
[1]
  Biofilm formation, comparison of flavones (FIG. 11): strongest biofilm induction
  Biofilm formation in chemical screening (normalized to DMSO control): biofilm inducers
[1]; listed as Apigenin
  Biofilm formation, comparison of flavones (FIG. 11): induced a larger biofilm production than Luteolin
Glucanoacetobacter
  Induction of biofilm formation in bacterial suspension: showed the induction of biofilm formation
[2]
  Nitrogen fixation (conversion of acetylene to ethylene, gas chromatography): promote nitrogen fixation
[3]
  15N assimilated in the leaves: significant increase in ^15N into Nitrogen compounds
[4]
  Adherence of bacteria to the root surface and inside the root tissue: Adherence of bacteria to the root surface and inside the root tissue can be seen

## O=c1cc(-c2ccc(O)c(O)c2)oc2cc(O)cc(O)c12 [luteolin]
[1]
  Biofilm production (natural flavonoids, FIG. 7): induced a significant increase in biofilm production
  Biofilm formation in chemical screening (normalized to DMSO control): biofilm inducers
Glucanoacetobacter
  Induction of biofilm formation in bacterial suspension: induction of biofilm formation by increasing amounts of luteolin
Azoarcus communis
  Luteolin-induced biofilm production: did not show an enhanced biofilm production
Azoarcus sp. CIB; Azoarcus sp. CIB
  Luteolin-induced biofilm synthesis: displayed a luteolin-induced biofilm synthesis
Azoarcus sp. CIB; Azoarcus sp. CIB versus Burkholderia vietnamensis
  Response to luteolin relative to Burkholderia vietnamensis: lesser response to luteolin than Burkholderia vietnamensis
[5]
  Luteolin-induced biofilm synthesis: displayed a luteolin-induced biofilm synthesis
Azospirillum sp. 8510
  Luteolin-induced biofilm production: did not show an enhanced biofilm production
[6]
  Luteolin-induced biofilm production: did not show an enhanced biofilm production
